These results are taken from patent US10053471B2, “Azabenzimidazole derivatives” (Boehringer Ingelheim International GmbH, priority 2015, dated 2018).

For the assay, the target named is AMPK α1β1γ1 (Homo sapiens (Human), UniProt Q13131+Q9Y478). Briefly: in vitro AMPK activation assay (ADP Glo Luminescence Kinase test). In kind it is biochemical. The method, then: Recombinant human AMPK (containing subunits alpha1, beta1 and gamma1) was obtained from a baculovirus expression system. The 3 subunits were expressed together, affinity-purified via a GST-tag fused to the alpha 1 subunit and deep-frozen in storage buffer (50 mM Tris-HCl pH 8, 300 mM NaCl, 1 mM TCEP and 10% glycerol) at −80° C. until use. The activity of the AMPK protein was determined using the ADP Glo® Luminescence Kinase test (Promega; V9103X). In this homogeneous test the amount of ADP formed by the kinase reaction is quantified by a luciferin-luciferase reaction using luminescence as read-out. The luminescence signal obtained correlates with the amount of ADP resulting from the kinase reaction and thus correlates with the activity of the protein kinase.
AMPK α1β1γ1, sequence (Q13131 whole entry, the tested form may be a part): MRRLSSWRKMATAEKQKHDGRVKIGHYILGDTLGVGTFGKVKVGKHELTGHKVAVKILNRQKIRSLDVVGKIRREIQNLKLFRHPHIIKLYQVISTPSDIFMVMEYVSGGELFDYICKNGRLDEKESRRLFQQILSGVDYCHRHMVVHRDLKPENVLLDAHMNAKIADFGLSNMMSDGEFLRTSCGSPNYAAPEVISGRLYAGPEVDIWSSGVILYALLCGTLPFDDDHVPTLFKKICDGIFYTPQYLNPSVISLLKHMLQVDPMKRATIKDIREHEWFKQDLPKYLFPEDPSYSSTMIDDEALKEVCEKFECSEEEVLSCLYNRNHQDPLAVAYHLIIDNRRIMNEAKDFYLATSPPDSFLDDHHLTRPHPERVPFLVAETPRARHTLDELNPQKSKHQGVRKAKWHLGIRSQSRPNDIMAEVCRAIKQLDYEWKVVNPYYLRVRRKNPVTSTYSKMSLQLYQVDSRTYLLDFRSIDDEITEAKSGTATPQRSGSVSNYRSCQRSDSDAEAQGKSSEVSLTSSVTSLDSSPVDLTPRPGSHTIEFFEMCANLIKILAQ
AMPK α1β1γ1, sequence (Q9Y478 whole entry, the tested form may be a part): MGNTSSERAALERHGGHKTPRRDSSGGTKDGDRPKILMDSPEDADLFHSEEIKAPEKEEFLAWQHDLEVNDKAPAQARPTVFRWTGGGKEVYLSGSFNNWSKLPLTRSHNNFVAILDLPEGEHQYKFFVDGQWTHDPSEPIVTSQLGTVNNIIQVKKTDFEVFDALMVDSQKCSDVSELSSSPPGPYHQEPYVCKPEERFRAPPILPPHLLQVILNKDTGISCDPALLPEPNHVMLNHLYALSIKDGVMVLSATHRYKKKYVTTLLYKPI
AMPK α1β1γ1, sequence (P54619 whole entry partner, the tested form may be a part): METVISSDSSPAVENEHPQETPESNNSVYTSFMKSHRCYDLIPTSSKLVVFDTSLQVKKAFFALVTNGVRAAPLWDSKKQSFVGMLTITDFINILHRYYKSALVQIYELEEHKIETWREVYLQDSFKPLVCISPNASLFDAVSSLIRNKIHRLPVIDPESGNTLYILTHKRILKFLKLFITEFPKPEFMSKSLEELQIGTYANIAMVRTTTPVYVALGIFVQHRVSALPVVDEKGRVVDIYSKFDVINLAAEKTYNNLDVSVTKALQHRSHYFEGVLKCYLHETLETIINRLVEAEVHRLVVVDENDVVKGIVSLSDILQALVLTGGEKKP
The test compounds were dissolved in 100% DMSO at a concentration of 10 mM and in a first step diluted in DMSO to a concentration of 5 mM, followed by serial dilution steps in 100% DMSO. Dilution factor and number of dilution steps may vary. Typically 8 different concentrations by 1:5 dilutions were prepared, further dilutions of the substances were carried out with test buffer (20 mM Hepes (pH 7.0), 15 mM MgCl2, 0.025% BSA, 0.01% Brij 35) until a concentration was reached which was 5 times above the final test concentration. 2 μl aliquots of these dilutions were transferred into a 384-well Optiplate (Perkin Elmer, #6007290). Typically the start concentration for serial dilutions in the assay is 10 μM. Typically AMPK was diluted to 25 μg/ml in the test buffer and 4 μl of this dilution were used in the kinase test (final concentration of AMPK is 10 μg/ml in a total volume of 10 μl for the kinase reaction). Kinase concentrations may vary depending on activity of the preparation batches. After 10 minutes incubation at room temperature 4 μl of a mix containing 2.5 μM substrate (H-His-Met-Arg-Ser-Ala-Met-Ser-Gly-Leu-His-Leu-Val-Lys-Arg-Arg-OH Trifluoroacetate salt/HMRSAMSGLHLVKRR from Bachem, Cat. No. H5938) and 75 μM ATP in test buffer were added to each well and the incubation was continued for 60 minutes at room temperature.
Positive controls are the reaction mixtures that contain no test substance; negative controls (blanks) are reaction mixtures that contain no AMPK enzyme.
After 60 minutes, 10 μl ADP-Glo® solution (ADP-Glo Reagent #V912B Promega) (heated to room temperature) were added to each well and incubation was continued for 40 minutes. Then 20 μl Kinase detection mix (Detection Buffer #V913B Promega; Kinase Detection Substrate #V914B Promega) were added and incubated for additional 40 minutes at room temperature.
All incubations were done in sealed plates in the dark.
The plates were read with an Envision Luminescence Reader (Perkin-Elmer).
Data Evaluation and Calculation:
The output file of the reader is a csv file that contains the well number and measured RLU. For data evaluation and calculation, the measurement of the negative control was set as 0% control and the measurement of the positive control was set as 100% control. Based on these values the % value for the measurement of each substance concentration was calculated using Assay Explorer software (Accelrys). Activating compounds achieve % of control values above 100%. The IC50 values were calculated from the % control values using Assay Explorer software. Calculation: [y=(a−d)/(1+(x/c)^b)+d], a=low value, d=high value; x=conc M; c=IC50 M; b=hill; y=% ctrl. The maximal achievable activation of a compound in the tested concentration range is reported as percent of control max (PoCmax).

The structures appear in SMILES notation. pEC50: −log10 of the molar value.

For `CS(C)(=O)=Nc1ccc(-c2ccc(-c3nc4[nH]c(O[C@@H]5CO[C@H]6[C@@H]5OC[C@H]6O)nc4cc3Cl)cc2F)cc1` [Example 8, ({4-[4-(2-{[(3R,3aR,6R,6aR)-6-Hydroxy-hexahydrofuro[3,2-b]furan-3-yl]oxy}-6-chloro-3H-imidazo[4,5-b]pyridin-5-yl)-2-fluorophenyl]phenyl}imino)dimethyl-λ^6-sulfanone], the Emax (maximal achievable activation in the tested concentration range, percent of control max (positive control without test substance = 100%), read-out: AMPK α1β1γ1 PoCmax) worked out at 659%. The pEC50 (recombinant human AMPK alpha1/beta1/gamma1, ADP-Glo luminescence read-out) was 6.59.
